Results taken from US20090163442A1, “TREATMENT OF CANCER WITH 2-DEOXYGALACTOSE” (priority 2007, published 2009).
Values joined by “and” are separate entries in the source; they are usually repeats but may differ in a detail not shown here. Identical values can stand only once.

Assays:
[1] = tested on: tumor cell lines and types; conditions: Laszlo et al. 1958; cited from earlier work
[2] = tested on: tumor; conditions: cited from earlier work; for survival time / tumor growth: animal studies, Laszlo et al. 1960
[3] = tested on: CD 1 mice; assay: Liver toxicity study of 2-Fluoro-2-deoxygalactose, serum chemistry and clinical observations; assay type: in vivo; conditions: for Alt (alanine aminotransferase) / Ast (aspartate aminotransferase) / Tbili (total bilirubin): about 0.2 ml, male CD-1 mice, Day 2, individual animals
Procedure: The objective of this study was to evaluate the liver toxicity of 2-Fluoro-2-deoxygalactose when administered via intraperitoneal or intravenous injection to CD 1 mice. The study was initiated on Jan. 11, 2007, and consisted of three groups with three (3) male mice per group. On Day 1, each mouse GROUP was administered either about 0.2 ml of 10% 2 Fluoro 2 Deoxygalactose, intraperitoneally, about 0.2 ml of 10% 2 Fluoro 2 Deoxygalactose, intravenously, or about 0.2 ml of sterile 0.9% sodium chloride for injection, USP, intravenously. Criteria for evaluation included clinical observations and limited serum chemistry parameters (alanine aminotransferase [ALT], aspartate aminotransferase [AST], and total bilirubin). On Day 2, all animals were euthanized, blood was collected, and livers were collected and stored for potential histopathological evaluation.
Clinical observations were performed at least once daily.

[4] = tested on: hepatocellular carcinoma cell lines; assay: Sulforhodamine B (SRB) growth inhibition assay; assay type: cell-based, Human; conditions: continuous treatment 72 h
Procedure: The cells are cultured at 37 degrees C. in a humidified atmosphere containing 5% CO2. For passaging, cells grown in 75 cm2 flasks (6070% confluency) are washed with PBS and dissolved from the flasks with trypsin (Gibco BRL) before being plated. Ten thousand cells are plated into each well of a 96-well microtiter plate in 100 ul of medium. The cells are then incubated for 24 h at 37 degrees C. in a humidified atmosphere containing 5% CO2 prior to exposure to the 2-DG analog or other anti-cancer agent. Cultures are treated with a range of concentrations of 2-DGaI or a 2-DGaI analog solubilized in cell culture medium, diluted 100× to the desired concentration, continuously for 72 h. Docetaxel (Taxotere™, Aventis Pharmaceuticals, Inc.) solubilized in 100% DMSO and diluted 1000× to the desired concentration, is used as a positive control. The sulforhodamine B (SRB) assay, a dye-based method for determining cell number by virtue of SRB binding to basic amino acids of cellular macromolecules, is employed to assess the growth inhibitory activity of 2-DGal or a 2-DGal analog.

[5] = tested on: liver tumor serially passaged in nude mice; assay: Tumor growth delay study in a mouse xenograft model; assay type: in vivo; conditions: in combination with cisplatin (1 mg/kg i.p. days 1 to 5); 750 mg/kg orally twice daily; versus cisplatin alone
From the text: The efficacy of 2-DGaI or a 2-DGaI analog in combination with cisplatin can be compared with cisplatin alone in a tumor growth delay study in a mouse xenograft model. Small pieces of tumor, such as a liver tumor serially passaged in nude mice, are implanted subcutaneously in nude mice, and the tumors allowed to grow to 25 mm^2. Mice are then randomized to receive no treatment, treatment with 2-DGal or a 2-DGal analog alone, treatment with cisplatin alone, or treatment with both 2-DGal or a 2-DGaI analog and cisplatin. Cisplatin is dosed i.p. at 1 mg/kg on days 1 to 5.2-DGaI or a 2-DGaI analog is dosed orally at 750 mg/kg, twice daily, for the duration of the experiment. Each mouse is sacrificed when its tumor volume reaches 1000 mg.

[6] = tested on: normal liver tissue; assay: Uptake of 2-Fluoro-2-deoxygalactose by normal liver tissue

O=CC[C@@H](O)[C@H](O)[C@H](O)CO [2-DG, 2-Deoxy-D-glucose, reference compound]
inhibition of glycolysis [1]: inhibit glycolysis
tumor growth in animal models ([2]; Sokoloff 1955, Ball 1957): retard tumor growth
survival time [2]: modest prolongation of survival time
tumor growth [2]: inhibition of tumor growth

O=C[C@H](F)[C@@H](O)[C@@H](O)[C@H](O)CO [2-Fluoro-2-deoxygalactose, 2-fluoro-2-deoxy-D-galactose]
concentration of transaminases ([3]; CD1 mice, intraperitoneally): increases in concentration of transaminases
Alt (alanine aminotransferase) ([3]; Group 2, 10% 2-Fluoro-2-deoxygalactose intraperitoneally): 109 U/L and 73 U/L and 72 U/L
Ast (aspartate aminotransferase) ([3]; Group 2, 10% intraperitoneally): 234 U/L and 114 U/L and 118 U/L
Tbili (total bilirubin) ([3]; Group 2, 10% intraperitoneally): 0.2 mg/dL (2×) and 0.3 mg/dL
Alt (alanine aminotransferase) ([3]; Group 3, 10% 2-Fluoro-2-deoxygalactose intravenously): 45 U/L and 124 U/L and 30 U/L
Ast (aspartate aminotransferase) ([3]; Group 3, 10% intravenously): 112 U/L and 116 U/L and 52 U/L
Tbili (total bilirubin) ([3]; Group 3, 10% intravenously): 0.2 mg/dL (2×) and 0.1 mg/dL
gross pathology finding ([3]; intraperitoneal administered group): gross pathology finding of a single animal
rise in ALT and AST over normal animals ([3]; intraperitoneal group, versus the two expected controls of Group 1): 2-3 ×
unscheduled deaths ([3]; intraperitoneal or intravenous single injection, CD 1 mice): no unscheduled deaths
test article related clinical findings ([3]; intraperitoneal or intravenous single injection, clinical observations at least once daily): no adverse test article related clinical findings
elevated enzymes (ALT, AST) ([3]; intravenous group, at 24 hours): one animal with elevated enzymes at 24 hours and two that has returned to normal

O=CC[C@@H](O)[C@@H](O)[C@H](O)CO [2-DGal, 2-Deoxy-D-galactose]
growth of hepatocellular carcinoma cell lines [4]: inhibits the growth
inhibition of glycolysis [1]: inhibit glycolysis
survival time [2]: modest prolongation of survival time
tumor growth [2]: inhibition of tumor growth
efficacy relative to 2-DG ([2]; model systems of Laszlo et al. 1960): less efficacious
tumor growth delay [5]: delays tumor growth significantly more than treatment with cisplatin alone

O=C[C@H](O)[C@@H](O)[C@@H](O)[C@H](O)CO [galactose]
inhibition of uptake of 2-Fluoro-2-deoxygalactose [6]: markedly inhibits the uptake
